Data on two compounds can be found in PMC12029898, “Cellular Metabolomics Reveals Differences in the Scope of Liver Protection Between Ammonium-Based Glycyrrhizinate and Magnesium Isoglycyrrhizinate” (Metabolites, 2025).

Like-named read-outs stand apart in the source and are kept apart here.

In one data set the test system is LO2 cells. Put plainly: Hepatocyte protection rate in APAP-induced LO2 cells (MTT). The format is cell-based, human. To be noted: for liver protection rate: 16 mM APAP; for hepatocyte protection (therapeutic effect): 16 mM APAP, 200, 400 and 600 μM. As for the experimental part:
Assessment of hepatocyte-protective effects: Cells in the logarithmic growth phase were seeded onto a 96-well plate at a density of 4000 cells per well, followed by incubation at 37 °C in an atmosphere containing 5% CO2. After 24 h of incubation, cells were treated with 16 mM APAP, followed by the addition of MONO, DIAM, and MAGN at three escalating concentrations (200, 400, and 600 μM for each compound). The cell survival rate was quantitatively evaluated using MTT method. The protective efficacy of the compounds was then calculated employing the formula outlined below.(1) Hepatocytes protection rate=AGlycyrrhizinate−AAPAP/Anormal−AAPAP×1

Data set [1] is described as follows: Pharmacokinetics after oral gavage in rats (plasma, HPLC). It counts as in vivo, Sprague Dawley rats. To be noted: rat. The text has this:
Nine male Sprague Dawley rats, each weighing approximately 250 g ± 25 g, were meticulously selected as the experimental subjects (sourced from Beijing SPF Biotechnology Co., Ltd., (Beijing, China) SPF grade, licensed under SCXK (Jing) 2019-0010). The experimental protocol was approved by the Institutional Animal Care and Use Committee of Hebei Medical University and conformed to the Guide for Care and Use of Laboratory Animals (approval NO. 2023040). Prior to and throughout the experimental period, the rats were provided with unrestricted access to standard rodent chow and water. The housing facilities for these animals adhered strictly to the standards outlined by the International Association for the Evaluation and Certification of Laboratory Animal Care, ensuring optimal conditions for the animals’ wellbeing. The experimental feeding environment was maintained at a temperature of 22–24 °C, with a relative humidity of 50 ± 5%, and a 12-h light/dark cycle to mimic natural diurnal rhythms. The rats were randomly allocated into three distinct groups, with an equal distribution of three rats per group. MONO, DIAM, and MAGN were administered orally at a dose of 20 mg/kg. The amount administered was calculated as the contents of glycyrrhizinate or magnesium isoglycyrrhizinate. Each compound was dissolved in 0.5% carboxymethylcellulose sodium (CMC-Na) solution and delivered immediately to rats via gastric gavage. Blood samples of 0.2 mL were obtained at various time points post-administration (0.5, 1, 2, 4, 8, 12, 24, and 48 h) and centrifuged at 1500× g for 10 min at 4 °C, allowing for the separation of plasma, which was collected and stored at −20 °C for subsequent analysis.
Fifty microliters (50 μL) of plasma was obtained and spiked with 10 μL of dipyridamole solution as an internal standard. Subsequently, 100 μL of acetonitrile was added to precipitate the proteins, followed by vortex mixing. The mixture was centrifuged at 6000× g for 10 min at 4 °C. The resulting precipitate was discarded, and the supernatant was evaporated to dryness under a nitrogen stream at 60 °C. The residual precipitate was redissolved in 200 μL of mobile phase, vortexed for 5 min, and sonicated for 30 s. Following this, the solution was centrifuged again at 6000× g for 10 min at 4 °C. Then, 10 μL of the supernatant was injected and the chromatogram was recorded for analysis.
HPLC was employed using the Agilent 1200 series system (Agilent Technologies, Wilmington, DE, USA) with Agilent Chemstation LC B.04.03 Software. The separation was on a Venusil MP C18(2) chromatographic column (150 × 4.6 mm, 5 μm, Agela Technologies, Tianjin, China) based on the United States Pharmacopeia with adjustments performed. Isocratic elution with a mixture of 40 volumes of acetonitrile and 60 volumes of water (containing 0.5% acetic acid) was used. The flow rate and temperature were 1.0 mL/min and 40 °C, respectively. A volume of 10 μL of the sample was injected under 254 nm for analyses and with three repetitions for each test (n = 3). All the pharmacokinetic data were calculated by Drug and Statistics (DAS) 2.0 software (Mathematical Pharmacology Professional Committee of China, Shanghai, China) and presented as mean ± SD. The main parameters such as the area under the curve (AUC), the maximum plasma concentration (Cmax), the time to Cmax (Tmax), and elimination half-life (t1/2) were tabulated.

On to `CC1(C)[C@@H](O[C@H]2O[C@H](C(=O)O)[C@@H](O)[C@H](O)[C@H]2O[C@@H]2O[C@H](C(=O)O)[C@@H](O)[C@H](O)[C@H]2O)CC[C@]2(C)[C@H]3C(=O)C=C4[C@@H]5C[C@@](C)(C(=O)O)CC[C@]5(C)CC[C@@]4(C)[C@]3(C)CC[C@@H]12` [DIAM, diammonium glycyrrhizinate], for which the liver protection rate result in the data set on LO2 cells (400 μM) was “comparable liver protection rates, which were statistically indistinguishable and surpassed that of MONO”. Also, in the data set on LO2 cells, the “hepatocyte protection (therapeutic effect)” value is “concentration-dependent therapeutic effects”. In data set [1] (oral 20 mg/kg, n = 3), the AUC(0-t) came to 358.04 ± 56.36 µg·h/mL, the Cmax is 18860 ± 2030 ng/mL, the Tmax is listed as 6 ± 0 h and the t1/2 is 11.57 ± 1.29 h.

In the case of `CC1(C)[C@@H](O[C@H]2O[C@H](C(=O)O)[C@@H](O)[C@H](O)[C@H]2O[C@@H]2O[C@H](C(=O)O)[C@@H](O)[C@H](O)[C@H]2O)CC[C@]2(C)[C@H]3C(=O)C=C4[C@H]5C[C@@](C)(C(=O)O)CC[C@]5(C)CC[C@@]4(C)[C@]3(C)CC[C@@H]12` [MAGN, magnesium isoglycyrrhizinate], the liver protection rate result in the data set with LO2 cells (400 μM) is “comparable liver protection rates, which were statistically indistinguishable and surpassed that of MONO”; with LO2 cells (600 μM) it was “superior protective rate compared to DIAM”. Besides, the “hepatocyte protection (therapeutic effect)” value in the data set with LO2 cells was “concentration-dependent therapeutic effects”. For the same compound, the half-life in data set [1] (male, Sprague Dawley, po, 20 mg/kg, n = 3) is 23.7 ± 2.44 h. For the same compound, the AUC(0-t) in data set [1] (male, Sprague Dawley, po, 20 mg/kg, n = 3, read-out: AUC0-t) amounted to 552 ± 120 µg·h/mL. The Cmax in data set [1] (male, Sprague Dawley, po, 20 mg/kg, n = 3, read-out: Cmax) is 23200 ± 4180 ng/mL. For the same compound, the Tmax in data set [1] (male, Sprague Dawley, po, 20 mg/kg, n = 3, read-out: Tmax) amounted to 9.66 h; in data set [1] (oral 20 mg/kg, n = 3), 9.33 ± 2.31 h.

As usually defined, the Cmax is the peak of the concentration-time curve. By Tmax is commonly meant the time from dosing to the highest level. In general, half-life refers to how long it takes for the measured level to halve. A lower half-life goes with rapid decline.
